Laboratory results from patent US7745636B2, “Hepatitis C virus inhibitors” (Bristol-Myers Squibb Company, priority 2006, dated 2010).
Where two headings read alike, the source gives them in different places.

Tested on: HCV 1b-377-neo replicon cells
Assay: HCV Replicon assay, HCV 1b-377-neo replicon cells
Type: cell-based, HCV 1b genotype
Settings: Table 2, read-out: Range (EC50 against HCV 1b)

Structure (SMILES) | EC50 (Hepatitis C virus) [nM] | EC50 [nM]
COC(=O)N[C@H](C(=O)N1CCC[C@H]1c1nc(-c2cnc(-c3ccc(-c4cnc([C@@H]5CCCN5C(=O)[C@@H](NC(=O)OC)C5CC5)[nH]4)cc3)nc2)c[nH]1)C1CC1 [Example D75, methyl ((1S)-1-cyclopropyl-2-((2S)-2-(5-(2-(4-(2-((2S)-1-((2S)-2-cyclopropyl-2-((methoxycarbonyl)amino)acetyl)-2-pyrrolidinyl)-1H-imidazol-5-yl)phenyl)-5-pyrimidinyl)-1H-imidazol-2-yl)-1-pyrrolidinyl)-2-oxoethyl)carbamate] | 0.001 to 0.999 | 
CCN(CC)[C@@H](C(=O)N1CCC[C@H]1c1ncc(-c2ccc(-c3ncc(-c4c[nH]c([C@@H]5CCCN5C(=O)[C@@H](NC(=O)OC)C(C)C)n4)cn3)cc2)[nH]1)c1ccccc1 [Example D76, methyl ((1S)-1-(((2S)-2-(5-(2-(4-(2-((2S)-1-((2R)-2-(diethylamino)-2-phenylacetyl)-2-pyrrolidinyl)-1H-imidazol-5-yl)phenyl)-5-pyrimidinyl)-1H-imidazol-2-yl)-1-pyrrolidinyl)carbonyl)-2-methylpropyl) carbamate] | 0.001 to 0.999 | 
CCN(CC)[C@@H](C(=O)N1CCC[C@H]1c1ncc(-c2ccc(-c3ncc(-c4c[nH]c([C@@H]5CCCN5C(=O)[C@H](C)NC(=O)OC)n4)cn3)cc2)[nH]1)c1ccccc1 [Example D77, methyl ((1S)-2-((2S)-2-(5-(2-(4-(2-((2S)-1-((2R)-2-(diethylamino)-2-phenylacetyl)-2-pyrrolidinyl)-1H-imidazol-5-yl)phenyl)-5-pyrimidinyl)-1H-imidazol-2-yl)-1-pyrrolidinyl)-1-methyl-2-oxoethyl)carbamate] | 0.001 to 0.999 | 
COC(=O)N[C@H](C(=O)N1CCCC1c1ncc(-c2cc(C)c(-c3c(C)cc(-c4cnc([C@@H]5CCCN5C(=O)[C@@H](NC(=O)OC)C(C)C)[nH]4)cc3C)c(C)c2)[nH]1)C(C)C (some centres unmarked) [Example F71] | 0.001 to 0.999 | 
COC(=O)N[C@@H](C)C(=O)N(C)[C@@H](C)c1ncc(-c2ccc(-c3ccc(-c4[nH]c([C@@H]5CCCN5C(=O)[C@H](C)NC(=O)OC)nc4C(F)(F)F)cc3)cc2)[nH]1 [Example J42.a, methyl ((1S)-2-((2S)-2-(5-(4′-(2-((1S)-1-((N-(methoxycarbonyl)-L-alanyl)(methyl)amino)ethyl)-1H-imidazol-5-yl)-4-biphenylyl)-4-(trifluoromethyl)-1H-imidazol-2-yl)-1-pyrrolidinyl)-1-methyl-2-oxoethyl)carbamate] | 0.001 to 0.999 | 
COC(=O)N[C@@H](C(=O)N1CCC[C@H]1c1ncc(-c2cnc(-c3ccc(-c4[nH]c([C@@H]5CCCN5C(=O)[C@H](NC(=O)OC)c5ccccc5)nc4C(F)(F)F)cc3)nc2)[nH]1)c1ccccc1 [Example J46, methyl ((1R)-2-((2S)-2-(5-(4-(5-(2-((2S)-1-((2R)-2-((methoxycarbonyl)amino)-2-phenylacetyl)-2-pyrrolidinyl)-1H-imidazol-5-yl)-2-pyrimidinyl)phenyl)-4-(trifluoromethyl)-1H-imidazol-2-yl)-1-pyrrolidinyl)-2-oxo-1-phenylethyl) carbamate] | 0.001 to 0.999 | 
CCN(CC)[C@@H](C(=O)N1CCC[C@H]1c1ncc(-c2cnc(-c3ccc(-c4[nH]c([C@@H]5CCCN5C(=O)[C@@H](c5ccccc5)N(CC)CC)nc4C(F)(F)F)cc3)nc2)[nH]1)c1ccccc1 [Example J47, (1R)-2-((2S)-2-(5-(4-(5-(2-((2S)-1-((2R)-2-(diethylamino)-2-phenylacetyl)-2-pyrrolidinyl)-1H-imidazol-5-yl)-2-pyrimidinyl)phenyl)-4-(trifluoromethyl)-1H-imidazol-2-yl)-1-pyrrolidinyl)-N,N-diethyl-2-oxo-1-phenylethanamine] | 0.001 to 0.999 | 
COC(=O)N[C@H](C(=O)N1CCC[C@H]1c1ncc(-c2cnc(-c3ccc(-c4[nH]c([C@@H]5CCCN5C(=O)[C@@H](NC(=O)OC)C(C)C)nc4C(F)(F)F)cc3)nc2)[nH]1)C(C)C [Example J48, methyl ((1S)-1-(((2S)-2-(5-(2-(4-(2-((2S)-1-((2S)-2-((methoxycarbonyl)amino)-3-methylbutanoyl)-2-pyrrolidinyl)-4-(trifluoromethyl)-1H-imidazol-5-yl)phenyl)-5-pyrimidinyl)-1H-imidazol-2-yl)-1-pyrrolidinyl)carbonyl)-2-methylpropyl) carbamate] | 0.001 to 0.999 | 
COC(=O)N[C@H](C(=O)N1CCC[C@H]1c1ncc(-c2cnc(-c3ccc(-c4[nH]c([C@@H]5CCCN5C(=O)[C@@H](NC(=O)OC)C5CC5)nc4C(F)(F)F)cc3)nc2)[nH]1)C1CC1 [Example J49, methyl ((1S)-1-cyclopropyl-2-((2S)-2-(5-(4-(5-(2-((2S)-1-((2S)-2-cyclopropyl-2-((methoxycarbonyl)amino)acetyl)-2-pyrrolidinyl)-1H-imidazol-5-yl)-2-pyrimidinyl)phenyl)-4-(trifluoromethyl)-1H-imidazol-2-yl)-1-pyrrolidinyl)-2-oxoethyl)carbamate] | 0.001 to 0.999 | 
COC(=O)N[C@@H](C)C(=O)N1CCC[C@H]1c1ncc(-c2cnc(-c3ccc(-c4[nH]c([C@@H]5CCCN5C(=O)[C@H](C)NC(=O)OC)nc4C(F)(F)F)cc3)nc2)[nH]1 [Example J50, methyl ((1S)-2-((2S)-2-(5-(4-(5-(2-((2S)-1-(N-(methoxycarbonyl)-L-alanyl)-2-pyrrolidinyl)-1H-imidazol-5-yl)-2-pyrimidinyl)phenyl)-4-(trifluoromethyl)-1H-imidazol-2-yl)-1-pyrrolidinyl)-1-methyl-2-oxoethyl)carbamate] | 0.001 to 0.999 | 
COC(=O)N[C@H](C(=O)N1CCC[C@H]1c1ncc(-c2ccc(-c3ccc(-c4cnc([C@@H]5CCCN5C(=O)[C@@H](NC(=O)OC)C(C)C)[nH]4)cc3C(=O)O)cc2)[nH]1)C(C)C [Example M114, 4,4′-bis(2-((2S)-1-(N-(methoxycarbonyl)-L-valyl)-2-pyrrolidinyl)-1H-imidazol-5-yl)-2-biphenylcarboxylic acid] | 1000 to 10000 | 
COC(=O)N[C@H](C(=O)N1CCC[C@H]1c1ncc(-c2ccc(-c3ccc(-c4cnc([C@@H]5CCCN5C(=O)[C@@H](NC(=O)OC)C(C)C)[nH]4)cc3C(N)=O)cc2)[nH]1)C(C)C [Example M118, methyl((1S)-1-(((2S)-2-(5-(2′-carbamoyl-4′-(2-((2S)-1-((2S)-2-((methoxycarbonyl)amino)-3-methylbutanoyl)-2-pyrrolidinyl)-1H-imidazol-5-yl)-4-biphenylyl)-1H-imidazol-2-yl)-1-pyrrolidinyl)carbonyl)-2-methylpropyl)carbamate] | 1000 to 10000 | 
COC(=O)N[C@H](C(=O)N1CCC[C@H]1c1ncc(-c2ccc(-c3ccc(-c4cnc([C@@H]5CCCN5C(=O)[C@@H](NC(=O)OC)C(C)C)[nH]4)cc3CO)cc2)[nH]1)C(C)C [Example M119, methyl((1S)-1-(((2S)-2-(5-(2-(hydroxymethyl)-4′-(2-((2S)-1-((2S)-2-((methoxycarbonyl)amino)-3-methylbutanoyl)-2-pyrrolidinyl)-1H-imidazol-5-yl)-4-biphenylyl)-1H-imidazol-2-yl)-1-pyrrolidinyl)carbonyl)-2-methylpropyl)carbamate] | 100 to 999 | 
COC(=O)N[C@H](C(=O)N1CCC[C@H]1c1ncc(-c2ccc(-c3ccc(-c4cnc([C@@H]5CCCN5C(=O)[C@@H](NC(=O)OC)C(C)C)[nH]4)cc3CN(C)C)cc2)[nH]1)C(C)C [Example M120, methyl((1S)-1-(((2S)-2-(5-(2-((dimethylamino)methyl)-4′-(2-((2S)-1-((2S)-2-((methoxycarbonyl)amino)-3-methylbutanoyl)-2-pyrrolidinyl)-1H-imidazol-5-yl)-4-biphenylyl)-1H-imidazol-2-yl)-1-pyrrolidinyl)carbonyl)-2-methylpropyl)carbamate] | 100 to 999 | 
COC(=O)N[C@@H](C(=O)N1CCC[C@H]1c1ncc(-c2ccc(-c3ccc(-c4cnc([C@@H]5CCCN5C(=O)[C@H](NC(=O)OC)c5ccccc5)[nH]4)cc3CN(C)C)cc2)[nH]1)c1ccccc1 [Example M121, dimethyl((2-((dimethylamino)methyl)-4,4′-biphenyldiyl)bis(1H-imidazole-5,2-diyl(2S)-2,1-pyrrolidinediyl((1R)-2-oxo-1-phenyl-2,1-ethanediyl)))biscarbamate] | 100 to 999 | 
COC(=O)N[C@H](C(=O)N1[C@H](c2ncc(-c3ccc(-c4ccc(-c5cnc([C@@H]6C[C@@H]7C[C@@H]7N6C(=O)[C@@H](NC(=O)OC)C(C)C)[nH]5)cc4)cc3)[nH]2)C[C@@H]2C[C@@H]21)C(C)C [Example M122, methyl((1S)-1-(((1S,3S,5S)-3-(5-(4′-(2-((1S,3S,5S)-2-((2S)-2-((methoxycarbonyl)amino)-3-methylbutanoyl)-2-azabicyclo[3.1.0]hex-3-yl)-1H-imidazol-5-yl)-4-biphenylyl)-1H-imidazol-2-yl)-2-azabicyclo[3.1.0]hex-2-yl)carbonyl)-2-methylpropyl)carbamate] | 1 to 99 | 
COCC[C@H](NC(=O)OC)C(=O)N[C@H](c1nc(-c2ccc(-c3ccc(-c4c[nH]c([C@@H]5CCCN5C(=O)[C@H](CCOC)NC(=O)OC)n4)cc3)cc2)c[nH]1)C(C)C [Example R20, methyl ((1S)-3-methoxy-1-(((2S)-2-(4-(4′-(2-((1S)-1-((N-(methoxycarbonyl)-O-methyl-L-homoseryl)amino)-2-methylpropyl)-1H-imidazol-4-yl)-4-biphenylyl)-1H-imidazol-2-yl)-1-pyrrolidinyl)carbonyl)propyl)carbamate] | 0.001 to 0.999 | 
COC(=O)NC(C(=O)NC(C)c1ncc(-c2ccc(-c3ccc(-c4cnc(C5CCCN5C(=O)C(NC(=O)OC)C(C)C)[nH]4)cc3)cc2)[nH]1)C(C)C (centres unmarked) [Example R26] |  | 0.001 to 0.999
COC(=O)NC(C(=O)NC(C)c1ncc(-c2ccc(-c3ccc(-c4cnc(C5CCCN5C(=O)C(NC(=O)OC)C(C)OC)[nH]4)cc3)cc2)[nH]1)C(C)OC (centres unmarked) [Example R27] |  | 0.001 to 0.999
COC(=O)N[C@H](C(=O)N[C@H](c1ncc(-c2ccc(-c3ccc(-c4cnc([C@@H]5CCCN5C(=O)[C@@H](NC(=O)OC)C(C)C)[nH]4)cc3)cc2)[nH]1)[C@@H](C)O)C(C)C [Example R29] | 0.001 to 0.999 | 
